In patent US20050080060A1, “Antigestagenically active steroids with a fluorinated 17alpha-alkyl chain” (priority 1997, published 2005):

How the values were obtained:
Type in all cases: in vivo, rat
[1] = test system: rats; test: Abortive test on rats s.c. and p.o.
Source text: (§1) The tests below were all performed on rats according to known methods.
Abortive test s.c. and p.o.: See, for example, EP-A 0 283 428.

[2] = test system: dexamethasone-induced thymus suppression; test: Antithymolysis test on rats p.o. on antiglucocorticoid action
Source text: The tests below were all performed on rats according to known methods. Antithymolysis test p.o. on antiglucocorticoid action: See, for example, EP-A 0 283 428.

[3] = test system: uterus weight; test: Uterus growth test on rats p.o. for estrogenic action; conditions: ovariectomized rats, 3-day treatment
Method: The tests below were all performed on rats according to known methods. Uterus growth test p.o. for estrogenic action: Stimulation of uterus weight with the test compound, vehicle: s.c. benzylbenzoate/castor oil (1+4); p.o. NaCl-myrj; 3-day treatment of ovariectomized animals; parameters: uterus weight and endometrial epithelium height; vaginal smear negative; reference compound: estradiol 0.1 μg.

[4] = test system: prostate weight; test: Androgen test on rats p.o. (stimulation of the prostate weight)
Method: as §1
Androgen test p.o.: Stimulation of the prostate weight with the test compound, vehicle: s.c. benzylbenzoate, castor oil (1+4); p.o. NaCl-myrj; reference compound testosterone propionate. Virtually no stimulation of the prostate weight is observed up to a dose of 10 mg of test compound/animal/day.

Compound	Abortive test on rats p.o. (n abortion/n total) ([1]; dose 0.003 mg/animal/day)	Abortive test on rats p.o. (n abortion/n total) ([1]; dose 0.01 mg/animal/day)	Abortive test on rats p.o. (n abortion/n total) ([1]; dose 0.03 mg/animal/day)	Abortive test on rats p.o. (n abortion/n total) ([1]; dose 0.1 mg/animal/day)	Abortive test on rats p.o. (n abortion/n total) ([1]; dose 0.3 mg/animal/day)	Abortive test on rats s.c. (n abortion/n total) ([1]; dose 0.03 mg/animal/day)	Abortive test on rats s.c. (n abortion/n total) ([1]; dose 0.1 mg/animal/day)	Abortive test on rats s.c. (n abortion/n total) ([1]; dose 0.3 mg/animal/day)	Antithymolysis test on rats p.o. (% elimination of dexamethasone-induced thymus suppression) ([2]; dose 2.2 mg/animal/day)	Antithymolysis test on rats p.o. (% elimination of dexamethasone-induced thymus suppression) ([2]; dose 6.7 mg/animal/day)	Antithymolysis test on rats p.o. (% elimination of dexamethasone-induced thymus suppression) ([2]; dose 22 mg/animal/day)	Uterus growth test on rats p.o. (% uterus weight stimulation) ([3]; dose 10 mg/animal/day)	Androgen test on rats p.o. (% prostate stimulation) ([4]; dose 1 mg/animal/day)	Androgen test on rats p.o. (% prostate stimulation) ([4]; dose 3 mg/animal/day)	Androgen test on rats p.o. (% prostate stimulation) ([4]; dose 10 mg/animal/day)	Antithymolysis test on rats p.o. (% elimination of dexamethasone-induced thymus suppression) ([2]; dose 1 mg/animal/day)	Antithymolysis test on rats p.o. (% elimination of dexamethasone-induced thymus suppression) ([2]; dose 3 mg/animal/day)	Antithymolysis test on rats p.o. (% elimination of dexamethasone-induced thymus suppression) ([2]; dose 10 mg/animal/day)	Uterus growth test on rats p.o. (% uterus weight stimulation) ([3]; dose 3 mg/animal/day)
6′-Acetyl-9,11α-dihydro-17β-hydroxy-17α-(1,1,2,2,2-pentafluoroethyl)-4′H-naphth[3′,2′,1′:10,9,11]estr-4-en-3-one [Compound C]	(4/4)	(4/4)	(4/4)	(4/4)	(4/4)	(4/4)	(4/4)	(4/4)	(7.2) %	(31.6) %	(18.8) %	(4.4) %							
C=C1CCOC12CCC1C3CCC4=CC(=O)CCC4=C3C(c3ccc(C(C)=O)cc3)CC12C (stereo not drawn) [E, 11β-(4-Acetylphenyl)-19,24-dinor-17,23-epoxy-17α-chola-4,9,20-trien-3-one, reference compound]			(0/4)	(4/4)	(4/4)	(0/4)	(3/4)	(4/4)				(2.4) %	(4.0) %	(5.6) %	(4.4) %	(4.3) %	(19.1) %	(44.7) %	(1.3) %
CC(=O)c1ccc([C@H]2C[C@@]3(C)[C@@H](CC[C@@]3(O)C(F)(F)C(F)(F)F)[C@@H]3CCC4=CC(=O)CCC4=C32)cc1 [B, 11β-(4-Acetylphenyl)-17β-hydroxy-17α-(1,1,2,2,2-pentafluoroethyl)estra-4,9-dien-3-one]			(4/4)	(4/4)	(4/4)	(4/4)	(4/4)	(4/4)				(2.6) %	(2.1) %	(0) %		(1.2) %	(21.6) %	(18.2) %	
CC#C[C@]1(O)CC[C@H]2[C@@H]3CCC4=CC(=O)CCC4=C3[C@@H](c3ccc(N(C)C)cc3)C[C@@]21C [D, 11β-[4-(Dimethylamino)phenyl]-17β-hydroxy-17α-(1-propinyl)estra-4,9-dien-3-one, reference compound]												(6.4) %	(1.6) %	(2.9) %	(7.2) %	(19) %	(79) %	(76) %	
CC(=O)c1ccc(C2CC3(C)C(CCC3(O)C(F)(F)C(F)(F)F)C3CCC4=CC(=O)CCC4C23)cc1 (stereo not drawn) [Compound A, 11β-(4-Acetylphenyl)-17β-hydroxy-17α-(1,1,2,2,2-pentafluoroethyl)estr-4-en-3-one]			(4/4)	(4/4)	(4/4)	(4/4)	(4/4)	(4/4)				(3.7) %	(4.8) %	(3.3) %		(6.0) %	(7.4) %	(11.5) %	
